US20250347680A1, “METHODS OF OPTIMIZING KINASE INHIBITORS” (Brandeis University, priority 2024, published 2025)

Experiments:
p38α = target: T1, p38α (Homo sapiens, UniProt Q16539); assay: WIP1 phosphatase assay: dephosphorylation of 32P-labelled dual-phosphorylated p38α bound to inhibitor; assay type: biochemical; conditions: p38α 0.25 μM, WIP1 2.5 μM, inhibitor 1.25 μM
T1 construct: 6-His (cleaved yes); made in house; host or cells: E. coli BL21 (DE3)
Description: (§1) Following initial incubation, excess cold ATP was added for a final concentration of 12 mM and was incubated overnight. Unincorporated nucleotide was removed by buffer exchange using a Zeba™ spin column equilibrated in 50 mM K·HEPES pH7.5, 100 mM NaCl. 6His-MKK6^EE was then removed by Ni-NTA resin equilibrated in 50 mM K·HEPES pH7.5, 100 mM NaCl, 20 mM imidazole. The flow-through fraction from the Ni-NTA resin containing p38-^32P was then exchanged into 50 mM K·HEPES pH7.5, 100 mM NaCl buffer using 3 subsequent Zeba spin columns to remove all unincorporated nucleotide and free phosphate. Labeled p38-^32P was aliquoted and frozen at −80° C. for future use.
WIP1 and PPM1A: All WIP1 phosphatase assays were performed at room temperature in 50 mM K HEPES pH7.5, 0.8 mM CHAPS, 0.05 mg/mL BSA, and 15 mM MnCl2. WIP1 concentration was 2.5 μM, PPM1A concentration was 0.5 μM and p38-^32P was 0.25 μM unless otherwise stated. […] Reactions were stopped with 0.5 MEDTA, pH8.0 and run on PEI-Cellulose TLC plates developed in 1 M LiCl2 and 0.8 M acetic acid and imaged on a Typhoon™ scanner. Phosphatase assays were performed more than three independent times as separate experiments. Data shown in figures is from a single representative experiment, and reported errors are the error from the fit unless indicated otherwise.

[1] = test system: p38α phosphorylation in HL60 cells; assay: Western blot of p38α phosphorylation in HL60 cells after TNFα or LPS stimulation; assay type: cell-based, human; conditions: for level of dual-phosphorylated p38α in HL60 cells: 10 μM inhibitor 30 minutes after stimulation with TNFα (40 ng/mL) or LPS; for level of dual-phosphorylated p38α in HL60 cells / single-tyrosine phosphorylated p38α / phospho-tyrosine in HL60 cells (phospho-site specific antibody) / threonine phosphorylation of p38α in HL60 cells (phospho-site specific antibody): western blot; for single-tyrosine phosphorylated p38α / phospho-tyrosine in HL60 cells (phospho-site specific antibody) / threonine phosphorylation of p38α in HL60 cells (phospho-site specific antibody): 10 μM inhibitor after TNFα stimulation; for p38α threonine phosphorylation in cells harvested immediately after addition of inhibitor: cells pretreated with TNFα
Description: Cell culture, reagents and antibodies: HL60 cells were maintained in RPM I media supplemented with 2 mM L-glutamine and 10% fetal bovine serum (FBS) at 37° C. in a humidified atmosphere of 5% CO2. HL60-APPM1A were generated. The following antibodies were obtained from Cell Signaling Technologies (Danvers, MA); PPM1A (cat. #3549), p38 (cat. #9212) and 2p-p38 (cat. #4511). The following antibodies were obtained from A B Clonal (Woburn, MA); p38-phospho-Y182 (cat. #AP0057) and p38-phospho-T180 (cat. #AP0056). B-actin antibody (cat. #sc-47778) was obtained from Santa Cruz Biotechnology (Santa Cruz, CA). Recombinant human TNFα (cat. #300-01A) was obtained from Peprotech (Cranbury, NJ). Lipopolysaccharide (LPS) 500× solution (cat. #50-112-9325) was obtained from Invitrogen (Waltham, MA).
Cellular assays: HL60 cells were cultured in 6 well plates and grown until a density of 2 million cells/mL. […] Cells were spun down at 500 xg for 5 minutes, carefully washed with PBS once, and lysed with 50 μL RIPA buffer supplemented with 1:1000 phosphatase inhibitor and 1:500 benzonase. Lysates were centrifuged at 10,000 rpm for 15 minutes. Supernatant was harvested and lysate was either analyzed immediately or flash-frozen and stored at −80° C.
Western blot: Protein concentration of the lysate was determined using Bradford reagent normalized to a standard curve. 40-50 μg total protein per sample was separated on a 10% Tris-tricine polyacrylamide gel and then transferred to a polyvinylidene (PV DF) membrane using the Bio-Rad transfer system. Standard blotting protocol was followed. Primary antibodies (see antibody section) were incubated overnight at 4° C. followed by near-infrared (NIR) labeled secondary antibodies Goat anti-Rabbit IgG (H+L) Cross-Adsorbed Secondary Antibody, DyLight™ 800 (cat #. SA5-10036) or IgG (H+L) Cross-Adsorbed Goat anti-mouse, DyLight™ 680, Invitrogen™ (cat #. 35519) obtained from Invitrogen (Waltham, MA) for 1 hour at room temperature in 2.5% milk in TBST. Blots were washed and imaged on a LI-COR imaging instrument.

p38α (T180A) = target: T2, p38α (T180A) (Homo sapiens, UniProt Q16539, T180A); assay: DUSP3 dephosphorylation of single tyrosine phosphorylated p38α (T180A); assay type: biochemical; conditions: DUSP3 15 μM, p38α T180A 0.25 μM, 5-fold excess inhibitor
T2 construct: 6-His (cleaved yes); made in house; host or cells: E. coli BL21 (DE3)
T2 sequence (Q16539 whole entry T180A): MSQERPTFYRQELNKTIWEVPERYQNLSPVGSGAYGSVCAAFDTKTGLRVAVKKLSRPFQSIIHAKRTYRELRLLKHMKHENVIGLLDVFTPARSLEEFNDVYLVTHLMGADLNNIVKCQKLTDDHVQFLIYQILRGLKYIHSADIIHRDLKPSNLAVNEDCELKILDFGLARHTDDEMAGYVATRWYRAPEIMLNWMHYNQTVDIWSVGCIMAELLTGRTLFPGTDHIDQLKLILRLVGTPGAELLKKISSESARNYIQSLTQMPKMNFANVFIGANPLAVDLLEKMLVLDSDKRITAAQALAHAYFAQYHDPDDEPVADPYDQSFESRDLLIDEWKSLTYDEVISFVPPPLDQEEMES
Description: as §1
DUSP3: All DUSP3 phosphatase assays were performed in 50 mM K HEPES pH7.5 and 100 mM NaCl. Reactions were stopped with SDS and run on PEI-Cellulose TLC plates run through water then developed in 1 M LiCl2 and 0.8 M acetic acid and imaged on a Typhoon scanner. Phosphatase assays were performed more than three independent times as separate experiments. Data shown in figures is from a single representative experiment, and reported errors are the error from the fit unless indicated otherwise.
+p38^T180A_32P: Reactions were run at room temperature with 15 μM DUSP3 and 0.25 μM p38^T180A_32.

MKK6 (Homo sapiens) = test system: T3, MKK6 (Homo sapiens); assay: Kinase assay: phosphorylation of p38α by MKK6; conditions: biochemical assay; 50 μM inhibitor, 25 μM p38
T3 construct: made in house; host or cells: E. coli BL21 (DE3)
T3 sequence (Q16539 whole entry): as the sequence (Q16539 whole entry T180A) above, with A180T counted along it
Description: Kinase assay: All kinase assays were performed at room temperature in 20 mM K HEPES PH7.5, 0.5 mMEDTA, 20 mM MgCl2 and 2 mM DTT. […] MKK6^EE was added to 25 μM p38, 25 μM cold ATP and 1 μCi of γ-^32P ATP. 50 μM p38 inhibitors were added to a final DMSO concentration of 5%. Reactions were stopped with SDS and run on PEI-Cellulose TLC plates run through water then developed in 1 M LiCl2 and 0.8 M acetic acid and imaged on a Typhoon™ scanner.

p38 = p38 (Homo sapiens, UniProt Q16539); conditions: initial biochemical kinase screening; cited from earlier work
Sequence of p38 (Q16539 whole entry): as the sequence (Q16539 whole entry T180A) above, with A180T counted along it

MKK6 = conditions: previous reports; cited from earlier work
[2] = single turnover, relative to DMSO control

T1 sequence (Q16539 whole entry): as the sequence (Q16539 whole entry T180A) above, with A180T counted along it

Row | SMILES | level of dual-phosphorylated p38α in HL60 cells [1] | single-tyrosine phosphorylated p38α / phospho-tyrosine in HL60 cells (phospho-site specific antibody) [1] | threonine phosphorylation of p38α in HL60 cells (phospho-site specific antibody) [1] | p38α threonine phosphorylation in cells harvested immediately after addition of inhibitor [1] | further results
1 | NC(=O)c1ccc2[nH]ccc2c1 [SD-169] | – | – | – | – | effect on WIP1 threonine dephosphorylation of p38α (in words) (p38α): no change on phosphatase activity
2 | CCc1nc(-c2cccc(C)c2)c(-c2ccnc(NC(=O)c3ccccc3)c2)s1 [TAK-715] | caused disappearance | did not accumulate | – | – | –
3 | Cc1c(F)cc(C(=O)NC2CC2)cc1-c1ccc(C(=O)NCC(C)(C)C)cn1 [losmapimod] | caused disappearance | did not accumulate | – | – | –
4 | Oc1ccc(-c2nc(-c3ccncc3)c(-c3ccc(F)cc3)[nH]2)cc1 [SB202190] | increased | – | increased | – | decrease of the rate of threonine dephosphorylation of p38α by WIP1 (p38α; [2]): 5 fold; effect on rate of DUSP3 dephosphorylation of Y182 of p38α (T180A) (p38α (T180A)): no effect
5 | Cc1cn(-c2cc(NC(=O)c3ccc(C)c(Nc4nccc(-c5cccnc5)n4)c3)cc(C(F)(F)F)c2)cn1 [nilotinib] | disappeared | increase | disappearance | completely disappeared | increase of the rate of threonine dephosphorylation of p38α by WIP1 (p38α; [2]): four-fold; threonine phosphorylation of p38α by MKK6 (MKK6 (Homo sapiens)): did not impact; binding of p38 compared to primary target ABL (p38): weak off-target binder; effect on rate of DUSP3 dephosphorylation of Y182 of p38α (T180A) (p38α (T180A)): no effect
6 | Cc1ccc(-n2nc(C(C)(C)C)cc2NC(=O)NCc2cc(F)ccc2Oc2ccc3c(cnn3CCO)c2)cc1 [pexmetinib] | disappeared | increase | disappearance | completely disappeared | –
7 | O=c1ncn2nc(Sc3ccc(F)cc3F)ccc2c1-c1c(Cl)cccc1Cl [VX-745] | caused disappearance | did not accumulate | – | – | effect on WIP1 threonine dephosphorylation of p38α (in words) (p38α): did not affect
8 | Cc1ccc(-n2nc(C(C)(C)C)cc2NC(=O)Nc2ccc(OCCN3CCOCC3)c3ccccc23)cc1 [BIRB 796] | disappeared | increase | disappearance | completely disappeared | MKK6 dual phosphorylation measured by ELISA (MKK6): block
9 | CC(C)(C)Cn1c(N)nc2ccc(-c3[nH]c(C(C)(C)C)nc3-c3ccc(F)cc3)nc21 [LY2228820] | increased | – | – | – | decrease of the rate of threonine dephosphorylation of p38α by WIP1 (p38α; [2]): 5 fold
